Test results taken from ChEMBL document CHEMBL1156374, “Pestalone, a new antibiotic produced by a marine fungus in response to bacterial challenge” (2001).
Converted amounts (≈) assume the structure as drawn.

What was measured:
Type in all cases: functional
Staphylococcus aureus = test: Antibacterial activity against methicillin-resistant Staphylococcus aureus
[1] = Cytotoxicity against human NCI60 cells
Enterococcus faecium = test: Antibacterial activity against vancomycin-resistant Enterococcus faecium

COc1c(Cl)c(C)c(Cl)c(O)c1C(=O)c1c(C=O)c(O)cc(O)c1CC=C(C)C [PESTALONE]
MIC (Staphylococcus aureus): 0.037 µg/mL (≈ 0.0842 µM)
GI50 [1]: 6 µM
MIC (Enterococcus faecium): 0.078 µg/mL (≈ 0.178 µM)
